The target in one data set is T1, mNT (mitoNEET) (Homo sapiens, UniProt Q9NZ45).
T1 construct: gene CISD1; soluble cytosolic part, residues 33-108; pET-28a+, E. coli BL21-RIL, Ni-agarose and size exclusion; [2Fe-2S] holo form; homodimer
T1 sequence (Q9NZ45 33-108): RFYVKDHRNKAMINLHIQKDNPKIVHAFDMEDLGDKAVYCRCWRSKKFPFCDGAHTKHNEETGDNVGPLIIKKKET
The data set can be described thus: isothermal titration calorimetry, one-site model. It is filed as binding.

The target of the next data set is T2, NAF-1 (Homo sapiens, UniProt Q8N5K1).
T2 construct: gene CISD2; soluble cytosolic part, residues 57-135; pET-28a+, E. coli BL21-RIL, Ni-agarose and size exclusion; [2Fe-2S] holo form; homodimer
T2 sequence (Q8N5K1 57-135): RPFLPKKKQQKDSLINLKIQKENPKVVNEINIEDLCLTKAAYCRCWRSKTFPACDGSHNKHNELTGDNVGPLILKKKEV
The data set can be described thus: isothermal titration calorimetry, one-site model. It is filed as binding. (In ITC the heat of successive injections is recorded.)

Data set [1] deals with the molecule itself. Nature of the data set: crystal structure; co-crystallised with the small molecule M1 (3.3 mM, 5% DMSO), sitting drop, 32% PEG-3000, 100 mM Tris-HCl pH 8.0, 100 mM NaCl, 20 °C; two molecules (mNT) or two dimers (NAF-1) in the asymmetric unit.

Usually Kd stands for a measure of binding affinity in units of concentration. A low value points to a tighter complex. For `O=C(Nc1scc(C2CCc3ccccc3C2)c1C(=O)O)c1ccccc1` (racemic) [M1], the dissociation constant Kd at mNT (mitoNEET) was 5.93 ± 0.53 µM; at NAF-1, 7.2 ± 0.99 µM.

B1: NAF-1 soluble part (residue 57-135) (domain or fragment, human, UniProt Q8N5K1 57-135, looked up)
chain: RPFLPKKKQQKDSLINLKIQKENPKVVNEINIEDLCLTKAAYCRCWRSKTFPACDGSHNKHNELTGDNVGPLILKKKEV
notes: NAF-1, human NEET protein encoded by CISD2, soluble part, residues 57-135; Each monomer carries a [2Fe-2S] cluster; Crystallised with the small molecule M1; source: Escherichia coli BL21-RIL, purified (Ni-agarose, size exclusion chromatography)
As to B1, the binding result in data set [1] is “binds”.

B2: mitoNEET soluble part (residue 33-108) (domain or fragment, human, UniProt Q9NZ45 33-108, looked up)
chain: RFYVKDHRNKAMINLHIQKDNPKIVHAFDMEDLGDKAVYCRCWRSKKFPFCDGAHTKHNEETGDNVGPLIIKKKET
notes: mitoNEET (mNT), human NEET protein, soluble part, residues 33-108; Each monomer carries a [2Fe-2S] cluster; Crystallised with the small molecule M1; also called mNT; source: Escherichia coli BL21-RIL, purified (Ni-agarose, size exclusion chromatography)
For the molecule B2, the binding result in data set [1] is given as “binds”.
